# Measurements from ChEMBL document CHEMBL3044692, “Biological activity of alpha-thujaplicin, the isomer of hinokitiol” (Biol Pharm Bull, 2004).
# The source made the active and inactive calls. The calls are words filed in the database; no cut-off is given here.
# Columns and labels:
# P388 [1] = test: Growth inhibition of Mus musculus (mouse) P388 cells at 0.63 ug/ml after 24 hr by MTT assay; assay type: functional; conditions: P388, 24 h, read-out: GI
# Dermatophagoides farinae [2] = test: Acaricidal activity against Dermatophagoides farinae assessed as mortality at 0.01 g/m'2 after 24 hr relative to control; assay type: functional
# Thanatephorus cucumeris = test: Antifungal activity against Thanatephorus cucumeris IFO 30455 after 15 days by agar dilution method; assay type: functional; conditions: IFO 30455, 360 h
# Reticulitermes speratus [3] = test: Insecticidal activity against Reticulitermes speratus assessed as mortality at 0.1 g/m'2 at 48 hr relative to control; assay type: functional
# Reticulitermes speratus [4] = test: Insecticidal activity against Reticulitermes speratus assessed as mortality at 0.04 g/m'2 at 48 hr relative to control; assay type: functional
# Reticulitermes speratus [5] = test: Insecticidal activity against Reticulitermes speratus assessed as mortality at 0.05 g/m'2 at 24 hr relative to control; assay type: functional
# Reticulitermes speratus [6] = test: Insecticidal activity against Reticulitermes speratus assessed as mortality at 0.05 g/m'2 at 48 hr relative to control; assay type: functional
# Reticulitermes speratus [7] = test: Insecticidal activity against Reticulitermes speratus assessed as mortality at 0.1 g/m'2 at 24 hr relative to control; assay type: functional
# Reticulitermes speratus [8] = test: Insecticidal activity against Reticulitermes speratus assessed as mortality at 0.02 g/m'2 at 48 hr relative to control; assay type: functional
# Dermatophagoides farinae [9] = test: Acaricidal activity against Dermatophagoides farinae assessed as mortality at 0.5 g/m'2 after 24 hr relative to control; assay type: functional
# P388 [10] = test: Growth inhibition of Mus musculus (mouse) P388 cells at 0.63 ug/ml after 48 hr by MTT assay; assay type: functional; conditions: P388, 48 h, read-out: GI
# P388 [11] = test: Growth inhibition of Mus musculus (mouse) P388 cells at >1.25 ug/ml after 24 hr by MTT assay; assay type: functional
# Dermatophagoides farinae [12] = test: Acaricidal activity against Dermatophagoides farinae assessed as mortality at 1 g/m'2 after 24 hr relative to control; assay type: functional
# Colletotrichum lagenaria = test: Antifungal activity against Colletotrichum lagenaria after 15 days by agar dilution method; assay type: functional; conditions: 360 h
# Phomopsis obscurans = test: Antifungal activity against Phomopsis obscurans MAFF 744018 after 15 days by agar dilution method; assay type: functional; conditions: Paraphomopsis obscurans, MAFF 744018, 360 h
# Reticulitermes speratus [13] = test: Insecticidal activity against Reticulitermes speratus assessed as mortality at 0.01 g/m'2 at 48 hr relative to control; assay type: functional
# P388 [14] = test: Growth inhibition of Mus musculus (mouse) P388 cells at >1.25 ug/ml after 48 hr by MTT assay; assay type: functional
# Fusarium solani = test: Antifungal activity against Fusarium solani IFO 9955 after 15 days by agar dilution method; assay type: functional; conditions: IFO 9955, 360 h
# Legionella pneumophila [15] = test: Antibacterial activity against Legionella pneumophila SG 1 after 7 days by agar dilution method; assay type: functional; conditions: SG 1, 168 h
# Reticulitermes speratus [16] = test: Insecticidal activity against Reticulitermes speratus assessed as mortality at 0.03 g/m'2 at 48 hr relative to control; assay type: functional
# Botrytis cinerea = test: Antifungal activity against Botryotinia fuckeliana IFO 30915 after 15 days by agar dilution method; assay type: functional; conditions: IFO 30915, 360 h
# P388 [17] = test: Growth inhibition of Mus musculus (mouse) P388 cells after 24 to 48 hr by MTT assay; assay type: functional, cell-based
# Legionella pneumophila [18] = test: Antibacterial activity against Legionella pneumophila SG 3 after 7 days by agar dilution method; assay type: functional; conditions: SG 3, 168 h
# Reticulitermes speratus [19] = test: Insecticidal activity against Reticulitermes speratus assessed as mortality at 0.02 g/m'2 at 24 hr relative to control; assay type: functional
# Reticulitermes speratus [20] = test: Insecticidal activity against Reticulitermes speratus assessed as mortality at 0.03 g/m'2 at 24 hr relative to control; assay type: functional
# [21] = test system: Colletotrichum orbiculare; test: Antifungal activity against Colletotrichum orbiculare MAFF 306518 after 15 days by agar dilution method; assay type: functional; conditions: MAFF 306518, 360 h
# Dermatophagoides farinae [22] = test: Acaricidal activity against Dermatophagoides farinae assessed as mortality at 0.1 g/m'2 after 24 hr relative to control; assay type: functional
# Pythium aphanidermatum = test: Antifungal activity against Pythium aphanidermatum IFO 32440 after 15 days by agar dilution method; assay type: functional; conditions: IFO 32440, 360 h
# Tyrophagus putrescentiae = test: Acaricidal activity against Tyrophagus putrescentiae at high concentration; assay type: functional, organism-based
# [23] = Toxicity against ip dosed Mus musculus Slc:ddY (mouse) after 8 days; assay type: organism-based; conditions: in vivo
# Reticulitermes speratus [24] = test: Insecticidal activity against Reticulitermes speratus assessed as mortality at 0.04 g/m'2 at 24 hr relative to control; assay type: functional
# Reticulitermes speratus [25] = test: Insecticidal activity against Reticulitermes speratus assessed as mortality at 0.01 g/m'2 at 24 hr relative to control; assay type: functional
# Reticulitermes speratus [26] = test: Insecticidal activity against Reticulitermes speratus at 48 hr; assay type: functional
# Dermatophagoides farinae [27] = test: Acaricidal activity against Dermatophagoides farinae after 24 hr; assay type: functional
# Reticulitermes speratus [28] = test: Insecticidal activity against Reticulitermes speratus assessed as mortality at 0.00025 g/m'2 at 24 hr relative to control; assay type: functional
# Reticulitermes speratus [29] = test: Insecticidal activity against Reticulitermes speratus assessed as mortality at 0.00050 g/m'2 at 48 hr relative to control; assay type: functional
# Reticulitermes speratus [30] = test: Insecticidal activity against Reticulitermes speratus assessed as mortality at 0.00010 g/m'2 at 24 hr relative to control; assay type: functional
# Reticulitermes speratus [31] = test: Insecticidal activity against Reticulitermes speratus assessed as mortality at 0.00005 g/m'2 at 48 hr relative to control; assay type: functional
# Reticulitermes speratus [32] = test: Insecticidal activity against Reticulitermes speratus assessed as mortality at 0.00050 g/m'2 at 24 hr relative to control; assay type: functional
# Reticulitermes speratus [33] = test: Insecticidal activity against Reticulitermes speratus assessed as mortality at 0.00025 g/m'2 at 48 hr relative to control; assay type: functional
# Reticulitermes speratus [34] = test: Insecticidal activity against Reticulitermes speratus assessed as mortality at 0.00005 g/m'2 at 24 hr relative to control; assay type: functional
# Reticulitermes speratus [35] = test: Insecticidal activity against Reticulitermes speratus assessed as mortality at 0.00010 g/m'2 at 48 hr relative to control; assay type: functional
# Reticulitermes speratus [36] = test: Insecticidal activity against Reticulitermes speratus assessed as mortality at 0.00001 g/m'2 at 24 hr relative to control; assay type: functional
# Dermatophagoides farinae [37] = test: Acaricidal activity against Dermatophagoides farinae assessed as mortality at 0.2 g/m'2 after 24 hr relative to control; assay type: functional
# [38] = Cytotoxicity against Mus musculus (mouse) RL male 1; assay type: functional
# Dermatophagoides farinae [39] = test: Acaricidal activity against Dermatophagoides farinae assessed as mortality at 0.02 g/m'2 after 24 hr relative to control; assay type: functional
# Dermatophagoides farinae [40] = test: Acaricidal activity against Dermatophagoides farinae assessed as mortality at 0.05 g/m'2 after 24 hr relative to control; assay type: functional
# MDCK = test: Cytotoxicity against MDCK cells; assay type: functional; conditions: Canis lupus familiaris
# K562 = test: Cytotoxicity against Homo sapiens (human) K562; assay type: functional, cell-based
# Colon 26 = test: Cytotoxicity against Mus musculus (mouse) colon 26 cells; assay type: functional
# [41] = Cytotoxicity against Homo sapiens (human) KATO III; assay type: functional
# HL-60 = test: Cytotoxicity against Homo sapiens (human) HL60; assay type: functional, cell-based
# [42] = Cytotoxicity against Mus musculus (mouse) MH134; assay type: functional
smiles,measurement,setting,value
CC(C)c1ccccc(=O)c1O [ALPHA-THUJAPLICIN],inhibition of growth at 0.63 µg/mL,P388 [1],78%
same,mortality,Dermatophagoides farinae [2],1.1%
same,MIC,Thanatephorus cucumeris,12 µg/mL
same,mortality,Reticulitermes speratus [3],100%
same,mortality,Reticulitermes speratus [4],100%
same,mortality,Reticulitermes speratus [5],93.3%
same,mortality,Reticulitermes speratus [6],100%
same,mortality,Reticulitermes speratus [7],100%
same,mortality,Reticulitermes speratus [8],0%
same,mortality,Dermatophagoides farinae [9],38.4%
same,inhibition of growth at 0.63 µg/mL,P388 [10],68%
same,growth inhibition (GI),P388 [11],98%
same,mortality,Dermatophagoides farinae [12],69.5%
same,MIC,Colletotrichum lagenaria,12 µg/mL
same,MIC,Phomopsis obscurans,12 µg/mL
same,mortality,Reticulitermes speratus [13],0%
same,growth inhibition (GI),P388 [14],100%
same,MIC,Fusarium solani,50 µg/mL
same,MIC,Legionella pneumophila [15],12.5 µg/mL
same,mortality,Reticulitermes speratus [16],100%
same,MIC,Botrytis cinerea,25 µg/mL
same,growth inhibition (GI),P388 [17],Dose-dependent effect
same,MIC,Legionella pneumophila [18],50 µg/mL
same,mortality,Reticulitermes speratus [19],0%
same,mortality,Reticulitermes speratus [20],0%
same,MIC,[21],12 µg/mL
same,mortality,Dermatophagoides farinae [22],0%
same,MIC,Pythium aphanidermatum,12 µg/mL
same,Activity,Tyrophagus putrescentiae,inactive
same,LD50 at 192 h,[23],256 mg/kg
same,mortality,Reticulitermes speratus [24],13.3%
same,mortality,Reticulitermes speratus [25],0%
same,LC50,Reticulitermes speratus [26],0.02 g/m2
same,LC50,Dermatophagoides farinae [27],0.66 g/m2
CCOP(=S)(OCC)Oc1nc(Cl)c(Cl)cc1Cl [CHLORPYRIFOS],mortality,Reticulitermes speratus [28],60%
same,mortality,Reticulitermes speratus [29],100%
same,mortality,Reticulitermes speratus [30],25%
same,mortality,Reticulitermes speratus [31],40%
same,mortality,Reticulitermes speratus [32],100%
same,mortality,Reticulitermes speratus [33],100%
same,mortality,Reticulitermes speratus [34],10%
same,mortality,Reticulitermes speratus [35],75%
same,mortality,Reticulitermes speratus [36],0%
same,LC50,Reticulitermes speratus [26],0.00016 g/m2
CCN(CC)C(=O)c1cccc(C)c1 [DIETHYLTOLUAMIDE],mortality,Dermatophagoides farinae [37],7.2%
same,mortality,Dermatophagoides farinae [9],20.5%
same,mortality,Dermatophagoides farinae [12],45.5%
same,mortality,Dermatophagoides farinae [22],0%
same,LC50,Dermatophagoides farinae [27],0.79 g/m2
CC(C)c1cccc(=O)c(O)c1 [HINOKITIOL],IC50,[38],0.3 µg/mL
same,mortality,Dermatophagoides farinae [2],0%
same,MIC,Thanatephorus cucumeris,12 µg/mL
same,mortality,Reticulitermes speratus [3],100%
same,mortality,Reticulitermes speratus [4],100%
same,mortality,Reticulitermes speratus [5],100%
same,mortality,Reticulitermes speratus [6],100%
same,mortality,Reticulitermes speratus [7],100%
same,mortality,Reticulitermes speratus [8],0%
same,mortality,Dermatophagoides farinae [39],2.6%
same,mortality,Dermatophagoides farinae [40],11.9%
same,mortality,Dermatophagoides farinae [12],100%
same,MIC,Colletotrichum lagenaria,25 µg/mL
same,MIC,Phomopsis obscurans,12 µg/mL
same,mortality,Reticulitermes speratus [13],0%
same,MIC,MDCK,10 µg/mL
same,MIC,Fusarium solani,50 µg/mL
same,MIC,Legionella pneumophila [15],6.25 µg/mL
same,mortality,Reticulitermes speratus [16],100%
same,IC50,K562,0.3 µg/mL
same,MIC,Botrytis cinerea,50 µg/mL
same,MIC,Colon 26,10 µg/mL
same,MIC,Legionella pneumophila [18],25 µg/mL
same,mortality,Reticulitermes speratus [19],0%
same,mortality,Reticulitermes speratus [20],13.3%
same,IC50,[41],0.3 µg/mL
same,MIC,[21],25 µg/mL
same,mortality,Dermatophagoides farinae [22],99%
same,MIC,Pythium aphanidermatum,12 µg/mL
same,IC50,HL-60,0.3 µg/mL
same,IC50,[42],0.3 µg/mL
same,mortality,Reticulitermes speratus [24],100%
same,mortality,Reticulitermes speratus [25],0%
same,LC50,Reticulitermes speratus [26],0.03 g/m2
O=c1cccccc1O [TROPOLONE],IC50,[38],0.3 µg/mL
same,IC50,K562,0.3 µg/mL
same,IC50,[41],0.3 µg/mL
same,IC50,HL-60,0.3 µg/mL
same,IC50,[42],0.3 µg/mL
CC[C@]1(O)C[C@@H]2CN(CCc3c([nH]c4ccccc34)[C@@](C(=O)OC)(c3cc4c(cc3OC)N(C)[C@H]3[C@@](O)(C(=O)OC)[C@H](OC(C)=O)[C@]5(CC)C=CCN6CC[C@]43[C@@H]65)C2)C1 [VINBLASTINE],inhibition of growth at 0.63 µg/mL,P388 [1],84%
